Experimental findings from patent US8119112B2, “Ophthalmic compositions with an amphoteric surfactant and hyaluronic acid” (Bausch & Lomb Incorporated, priority 2008, dated 2012) are described below.

A short description of the series: Precipitate formation of polyquaternium-1 with hyaluronic acid. It counts as physicochemical. The source says:
One of the more common quaternary ammonium compounds is α-[4-tris(2-hydroxyethyl)-ammonium chloride-2-butenyl]poly[1-dimethyl ammonium chloride-2-butenyl]-ω-tris(2-hydroxyethyl) ammonium chloride, also referred to in the art as polyquaternium-1. Quaternary ammonium compounds are generally referred to in the art as “polyquaternium” disinfectants, and are identified by a particular number following the designation such as polyquaternium-1, polyquaternium-10 or polyquaternium-42. Polyquaternium-1 is present in the ophthalmic compositions from 0.5 ppm to 3 ppm. […] The precipitate is believed to be the complexation product of hyaluronic acid and polyquaternium-1.

On to “α-[4-tris(2-hydroxyethyl)-ammonium chloride-2-butenyl]poly[1-dimethyl ammonium chloride-2-butenyl]-ω-tris(2-hydroxyethyl) ammonium chloride [polyquaternium-1]”, for which the “concentration of polyquaternium-1 in the compositions that results in formation of a precipitate” value is recorded as more than 3 ppm.
